Reference: article PMC11729640, “Synthesis and evaluation of 6-arylaminobenzamides as positron emission tomography imaging ligands for the sphingosine-1-phosphate-5 receptor” (RSC Medicinal Chemistry, 2025)

What was measured:
S1P5 = biological target: T1, S1P5 (Homo sapiens, UniProt Q9H228); experiment: [35S]GTPγS binding assay, agonist activity at S1P5; type: biochemical; details: for EC50: n = 3, errors in parentheses derived from 95% confidence intervals, nine concentrations 100 fM to 10 μM; for Efficacy (%): relative efficacy versus S1P against S1P5, single high concentration, single 96-well plate
T1 construct: purchased Eurofins
T1 sequence (Q9H228 whole entry): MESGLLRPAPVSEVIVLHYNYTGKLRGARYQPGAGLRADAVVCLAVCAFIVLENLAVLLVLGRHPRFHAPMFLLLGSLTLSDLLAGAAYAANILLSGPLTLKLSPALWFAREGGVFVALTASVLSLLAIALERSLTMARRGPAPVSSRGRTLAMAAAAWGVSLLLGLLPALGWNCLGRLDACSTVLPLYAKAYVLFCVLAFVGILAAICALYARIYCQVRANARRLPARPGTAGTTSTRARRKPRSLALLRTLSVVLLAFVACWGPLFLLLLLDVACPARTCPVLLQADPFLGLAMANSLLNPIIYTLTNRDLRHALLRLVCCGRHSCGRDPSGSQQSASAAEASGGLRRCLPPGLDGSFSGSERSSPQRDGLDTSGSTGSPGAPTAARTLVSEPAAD
Experimental: The membrane preparation was diluted to […] with assay buffer and mixed 1 : 1 (v/v) with a 0.4 mg mL^-1 solution of saponin in assay buffer. […] MerckTM Multiscreen® HTS 96 well filter plates were pre-wet with 70% aqueous EtOH (50 μL per well) for 30 seconds and then washed twice with assay buffer (200 μL per well). […]

[1] = biological target: human serum albumin (HSA) (Homo sapiens, UniProt P02768); experiment: Plasma protein binding by human serum albumin (HSA) coated column; type: in vitro ADME; details: read-out: %PPB (percentage of plasma protein binding)
Sequence of human serum albumin (HSA) (P02768 25-609): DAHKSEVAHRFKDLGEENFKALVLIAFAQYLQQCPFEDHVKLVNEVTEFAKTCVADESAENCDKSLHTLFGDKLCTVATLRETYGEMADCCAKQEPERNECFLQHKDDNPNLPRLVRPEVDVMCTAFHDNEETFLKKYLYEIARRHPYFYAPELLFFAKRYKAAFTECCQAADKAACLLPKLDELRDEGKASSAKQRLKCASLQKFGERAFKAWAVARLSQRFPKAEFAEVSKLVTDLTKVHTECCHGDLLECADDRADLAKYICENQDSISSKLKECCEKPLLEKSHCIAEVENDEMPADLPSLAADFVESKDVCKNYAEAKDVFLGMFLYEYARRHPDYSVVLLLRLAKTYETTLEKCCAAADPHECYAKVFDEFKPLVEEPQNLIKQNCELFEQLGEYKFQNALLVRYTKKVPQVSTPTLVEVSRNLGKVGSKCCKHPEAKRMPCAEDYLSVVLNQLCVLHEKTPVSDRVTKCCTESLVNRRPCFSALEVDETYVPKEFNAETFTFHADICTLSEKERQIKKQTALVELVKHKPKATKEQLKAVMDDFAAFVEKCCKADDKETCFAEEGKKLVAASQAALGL
Experimental: The physicochemical properties of both sets of compounds was initially performed to assess their potential as brain imaging agents. The calculated partition coefficient (log P), the permeability (Pm), the membrane partition coefficient (Km) and the percentage of plasma protein binding (%PPB) were determined for each compound using established methods (see ESI, ^† Table S1).[22,23] […] The permeability and membrane partition coefficient for the majority of compounds were well within the ideal limits for these parameters (Pm < 0.5; Km < 250), which are based on known CNS imaging agents.[23]
1. Physiochemical Propert ies of 6-arylaminobenz amides 7a–7h and 8a–8e.1
Compound log Pa Pmb Kmb %PPBc
aCalcul ated using Ch emDraw. bDeterm ined using i mmobil ised art ific ial membr ane (IAM) column .
cDetermin ed using human seru m albu min (HSA) coa ted colu mn.

S1P1 = biological target: T2, S1P1 (Homo sapiens, UniProt P21453); experiment: [35S]GTPγS binding assay, agonist activity at S1P1; type: biochemical; details: n = 3, errors in parentheses derived from 95% confidence intervals
T2 construct: purchased Eurofins
T2 sequence (P21453 whole entry): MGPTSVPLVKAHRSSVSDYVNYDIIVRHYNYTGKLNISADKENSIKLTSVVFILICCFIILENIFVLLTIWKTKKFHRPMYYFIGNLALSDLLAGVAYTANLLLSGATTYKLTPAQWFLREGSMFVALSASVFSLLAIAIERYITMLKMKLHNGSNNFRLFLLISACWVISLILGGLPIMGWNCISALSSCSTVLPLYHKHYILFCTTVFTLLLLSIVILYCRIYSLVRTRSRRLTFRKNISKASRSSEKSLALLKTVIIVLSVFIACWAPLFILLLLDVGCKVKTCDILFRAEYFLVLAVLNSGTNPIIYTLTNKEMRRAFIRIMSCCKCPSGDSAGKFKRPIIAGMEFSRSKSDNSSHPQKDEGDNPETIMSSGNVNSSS
Experimental: (§1) A GTPγS assay was then conducted to evaluate receptor agonist activity of each compound at nine concentrations from 100 fM to 10 μM (n = 3).[24,25] Initially, all compounds were tested for agonist activity with S1P5 and relative efficacy versus S1P (Table 1).[26] […] Previous work by the Novartis group described the importance of hydrogen bonding between the carboxamide and 2-substituent, to maintain an in-plane conformation of the amide that was critical for agonist activity against S1P receptors.[16] […] This was more pronounced for compounds with both a bulky alkoxy group and a 3-substituent, with 6-arylaminobenzamide 7h found to have the weakest activity. […] Based on the binding studies and the physicochemical results, 6-arylaminobenzamide 7g, named as TEFM78 was chosen as the lead compound.
(§2) The assay buffer was prepared from HEPES (20 mM), NaCl (100 mM), MgCl2 (10 mM) and fatty acid-free BSA (0.1%) at pH 7.4. ChemiScreen™ S1P1–3,5 lysophospholipid receptor membrane preparations were obtained from Eurofins. The membrane preparation was diluted to […] with assay buffer and mixed 1 : 1 (v/v) with a 0.4 mg mL^−1 solution of saponin in assay buffer. Nine concentrations of the compounds to be tested were prepared (10 μM, 1 μM, 100 nM, 10 nM, 1 nM, 100 pM, 10 pM, 1 pM, 100 fM). Merck™ Multiscreen® HTS 96 well filter plates were pre-wet with 70% aqueous EtOH (50 μL per well) for 30 seconds and then washed twice with assay buffer (200 μL per well). To each well was added membrane preparation (25 μL), GDP in assay buffer (25 μL, 2 μM), [^35S]GTPγS in assay buffer (25 μL, 1.2 nM) and test compound (25 μL). For total binding, S1P solution in assay buffer (25 μL, 10 μM) was added and for basal, assay buffer (25 μL) was added. The assay plate was incubated at 30 °C for 0.5 h before the addition of cold assay buffer (100 μL per well) to stop the reaction. The plate was filtered using a Millipore vacuum manifold, with a pressure between 600–800 mbar and then dried at 50 °C for 1–2 h. Betaplate Scint scintillation cocktail (30 μL per well) was added and the disintegrations per minute were determined using a Wallac 1450 Microbeta Trilux liquid scintillation and luminescence counter. EC50 values were derived from non-linear regression analysis using GraphPad Prism Version 6 (GraphPad Software Inc).

S1P3 = biological target: T3, S1P3 (Homo sapiens, UniProt Q99500); experiment: [35S]GTPγS binding assay, agonist activity at S1P3; type: biochemical; details: n = 3, errors in parentheses derived from 95% confidence intervals
T3 construct: purchased Eurofins
T3 sequence (Q99500 whole entry): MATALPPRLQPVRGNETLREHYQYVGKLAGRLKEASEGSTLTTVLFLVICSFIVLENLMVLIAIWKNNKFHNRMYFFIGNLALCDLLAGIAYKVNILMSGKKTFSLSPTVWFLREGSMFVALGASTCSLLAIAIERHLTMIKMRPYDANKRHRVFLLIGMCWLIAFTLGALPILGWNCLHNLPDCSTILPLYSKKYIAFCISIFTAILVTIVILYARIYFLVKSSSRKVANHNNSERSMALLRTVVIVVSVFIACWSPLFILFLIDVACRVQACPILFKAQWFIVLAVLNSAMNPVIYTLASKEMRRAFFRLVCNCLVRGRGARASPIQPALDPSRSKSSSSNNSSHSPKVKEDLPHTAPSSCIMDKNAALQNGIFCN
Experimental: as §1, §2

S1P2 = biological target: T4, S1P2 (Homo sapiens, UniProt O95136); experiment: [35S]GTPγS binding assay, agonist activity at S1P2; type: biochemical; details: n = 3, errors in parentheses derived from 95% confidence intervals
T4 construct: purchased Eurofins
T4 sequence (O95136 whole entry): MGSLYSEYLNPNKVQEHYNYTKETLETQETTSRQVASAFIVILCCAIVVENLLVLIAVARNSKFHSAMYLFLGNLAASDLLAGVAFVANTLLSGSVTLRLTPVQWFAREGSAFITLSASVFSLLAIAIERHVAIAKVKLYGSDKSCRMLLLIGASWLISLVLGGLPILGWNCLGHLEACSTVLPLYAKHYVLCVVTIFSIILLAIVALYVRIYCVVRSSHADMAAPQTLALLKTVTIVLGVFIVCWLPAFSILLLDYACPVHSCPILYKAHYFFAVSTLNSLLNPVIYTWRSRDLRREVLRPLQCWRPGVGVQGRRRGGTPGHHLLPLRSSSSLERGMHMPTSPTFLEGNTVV
Experimental: as §1, §2

| Structure (SMILES) | EC50 (S1P5) [nM] | Efficacy (%) (S1P5) | fraction unbound [1] | EC50 (S1P1) [nM] | EC50 (S1P3) [nM] | EC50 (S1P2) [nM] |
| --- | --- | --- | --- | --- | --- | --- |
| Cc1cc(F)cc(C)c1Nc1cccc(OC(C)C)c1C(N)=O [Compound 7a, 6-[(4′-Fluoro-2′,6′-dimethylphenyl)amino]-2-isopropoxybenzamide] | 419 | 105 | 0.01 | – | – | – |
| COc1cccc(Nc2c(C)cc(F)cc2C)c1C(N)=O [Compound 7b, 6-[(4′-Fluoro-2′,6′-dimethylphenyl)amino]-2-methoxybenzamide] | 39.8 | 108 | 0.01 | > 10000 | > 10000 | > 10000 |
| Cc1cc(F)cc(C)c1Nc1cccc(OCC(C)C)c1C(N)=O [Compound 7c, 6-[(4′-Fluoro-2′,6′-dimethylphenyl)amino]-2-isobutoxybenzamide] | 180 | 137 | – | – | – | – |
| CCCCOc1cccc(Nc2c(C)cc(F)cc2C)c1C(N)=O [Compound 7d, 2-n-Butoxy-6-[(4′-fluoro-2′,6′-dimethylphenyl)amino]benzamide] | 234 | 140 | – | – | – | – |
| Cc1cc(F)cc(C)c1Nc1cccc(OCCC(C)C)c1C(N)=O [Compound 7e, 6-[(4′-Fluoro-2′,6′-dimethylphenyl)amino]-2-(3′′-methyl-n-butoxy)benzamide] | 49 | 102 | – | – | – | – |
| C=CCOc1cccc(Nc2c(C)cc(F)cc2C)c1C(N)=O [Compound 7f, 2-(Allyloxy)-6-[(4′-fluoro-2′,6′-dimethylphenyl)amino]benzamide] | 6.66 | 164 | – | 25.6 | 27.6 | > 10000 |
| COc1c(C)ccc(Nc2c(C)cc(F)cc2C)c1C(N)=O [Compound 7g, 6-[(4′-Fluoro-2′,6′-dimethylphenyl)amino]-2-methoxy-3-methylbenzamide] | 22.3 | 183 | 0.01 | 104 | 2030 | > 10000 |
| Cc1cc(F)cc(C)c1Nc1ccc(C)c(OCC(C)C)c1C(N)=O [Compound 7h, 6-[(4′-Fluoro-2′,6′-dimethylphenyl)amino]-2-isobutoxy-3-methylbenzamide] | 2240 | 154 | – | – | – | – |
| COc1c(-c2ccc(F)cc2)ccc(Nc2c(C)cc(C)cc2C)c1C(N)=O [Compound 8a, 3-(4′′-Fluorophenyl)-6-(mesitylamino)-2-methoxybenzamide] | 72.3 | 129 | – | – | – | – |
| COc1c(-c2ccccc2F)ccc(Nc2c(C)cc(C)cc2C)c1C(N)=O [Compound 8b, 3-(2′′-Fluorophenyl)-6-(mesitylamino)-2-methoxybenzamide] | 954 | 136 | – | – | – | – |
| COc1ccc(-c2ccc(Nc3c(C)cc(C)cc3C)c(C(N)=O)c2OC)c(F)c1 [Compound 8c, 3-(2′′-Fluoro-4′′-methoxyphenyl)-6-(mesitylamino)-2-methoxybenzamide] | 29.8 | 120 | – | 76 | > 10000 | > 10000 |
| COc1ccc(F)c(-c2ccc(Nc3c(C)cc(C)cc3C)c(C(N)=O)c2OC)c1 [Compound 8d, 3-(2′′-Fluoro-5′′-methoxyphenyl)-6-(mesitylamino)-2-methoxybenzamide] | 612 | 142 | – | – | – | – |
| COc1c(-c2cccnc2F)ccc(Nc2c(C)cc(C)cc2C)c1C(N)=O [Compound 8e, 3-(2′′-Fluoropyridin-3′′-yl)-6-(mesitylamino)-2-methoxybenzamide] | 23.4 | 175 | 0.01 | 0.336 | 172 | > 10000 |
| CCCCCCCCCCCCC/C=C/[C@@H](O)[C@@H](N)COP(=O)(O)O [S1P (1), sphingosine-1-phosphate] | – | 100 | – | – | 42.6 | – |
